From ChEMBL document CHEMBL1201862, “PubChem BioAssay data set” (2004)
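Test compounds were applied to cells in 96-well plates for 48 hours at 5 doses. GI50: concentration for 50% inhibition of growth.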 Calls of active or inactive are those of the source. Rule as the data show it: active = GI50 up to about 1.1 µM and inactive = higher.

What was measured:
Experiment in all cases: DTP human tumour cell line panel, 48 h
U-251 = test system: U-251
SF-268 = test system: SF-268
HOP-62 = test system: HOP-62
NCI-H522 = test system: NCI-H522
HCT-15 = test system: HCT-15
TK-10 = test system: TK-10
SF-295 = test system: SF-295
HCT-116 = test system: HCT-116
LXFL 529 = test system: LXFL 529
NCI-H226 = test system: NCI-H226
SNB-19 = test system: SNB-19
M14 = test system: M14
SW-620 = test system: SW-620
HT-29 = test system: HT-29
KM12 = test system: KM12
NCI-H23 = test system: NCI-H23
EKVX = test system: EKVX
SN12C = test system: SN12C
T47D = test system: T47D
NCI/ADR-RES = test system: NCI/ADR-RES

SMILES | GI50 (U-251) | GI50 (SF-268) | GI50 (HOP-62) | GI50 (NCI-H522) | GI50 (HCT-15) | GI50 (TK-10) | GI50 (SF-295) | GI50 (HCT-116) | GI50 (LXFL 529) | GI50 (NCI-H226) | GI50 (SNB-19) | GI50 (M14) | GI50 (SW-620) | GI50 (HT-29) | GI50 (KM12) | GI50 (NCI-H23) | GI50 (EKVX) | GI50 (SN12C) | GI50 (T47D) | GI50 (NCI/ADR-RES)
COC(=O)C(Cc1nc2ccccc2nc1O)C(=O)C(=O)Nc1ccc([N+](=O)[O-])cc1[N+](=O)[O-] (stereo unspecified) | 17.1 µM (inactive) | 21.5 µM (inactive) | 24.2 µM (inactive) | 6.22 µM (inactive) | 17.3 µM | 26.4 µM (inactive) | 24.9 µM (inactive) | 21.2 µM (inactive) | 12.8 µM (inactive) | 14.5 µM (inactive) | 29.7 µM (inactive) | 17.8 µM (inactive) | 18.7 µM (inactive) | 19.4 µM (inactive) | 16 µM (inactive) | 18.7 µM (inactive) | 20 µM (inactive) | 19.8 µM (inactive) | – | –
C=CCNC(=O)N(CCCCC(NC(C)=O)C(=O)NCc1ccccc1)Cc1ccccc1 (stereo unspecified) | > 100 µM (inactive) | > 100 µM (inactive) | > 100 µM (inactive) | > 100 µM (inactive) | > 100 µM | > 100 µM (inactive) | > 100 µM (inactive) | – | > 100 µM (inactive) | > 100 µM (inactive) | > 100 µM (inactive) | > 100 µM (inactive) | > 100 µM (inactive) | > 100 µM (inactive) | > 100 µM (inactive) | > 100 µM (inactive) | > 100 µM (inactive) | > 100 µM (inactive) | – | –
Cc1oc2c(c1C(=O)c1ccccc1)C(=O)c1ccccc1C2=O | 7.24 µM (inactive) | 10.8 µM (inactive) | 14.2 µM (inactive) | 2.3 µM (inactive) | 4.51 µM | 19.1 µM (inactive) | 9.27 µM (inactive) | 3.3 µM (inactive) | 1.62 µM (inactive) | 13.9 µM (inactive) | 9.91 µM (inactive) | 4.28 µM (inactive) | 1.92 µM (inactive) | 17.8 µM (inactive) | 6.55 µM (inactive) | 2.01 µM (inactive) | 12.6 µM (inactive) | 11.7 µM (inactive) | 3.83 µM (inactive) | 3.52 µM (inactive)
CCCCC(C(=O)C(=O)NC1C2CC3CC(C2)CC1C3)C(=O)C(C)C (stereo unspecified) | > 100 µM (inactive) | > 100 µM (inactive) | > 100 µM (inactive) | > 100 µM (inactive) | > 100 µM | > 100 µM (inactive) | > 100 µM (inactive) | > 100 µM (inactive) | > 100 µM (inactive) | > 100 µM (inactive) | > 100 µM (inactive) | > 100 µM (inactive) | > 100 µM (inactive) | > 100 µM (inactive) | > 100 µM (inactive) | > 100 µM (inactive) | > 100 µM (inactive) | > 100 µM (inactive) | – | –
Cn1c(-c2ccccc2)c/c(=N\NS(C)(=O)=O)c2cc(S(=O)(=O)O)ccc21 | > 100 µM (inactive) | > 100 µM (inactive) | > 100 µM (inactive) | > 100 µM (inactive) | > 100 µM | > 100 µM (inactive) | > 100 µM (inactive) | > 100 µM (inactive) | > 100 µM (inactive) | > 100 µM (inactive) | > 100 µM (inactive) | > 100 µM (inactive) | > 100 µM (inactive) | > 100 µM (inactive) | > 100 µM (inactive) | > 100 µM (inactive) | > 100 µM (inactive) | > 100 µM (inactive) | – | –
CC1(C)CC(C)(C)CC(O)(C2(O)CC(C)(C)CC(C)(C)C2)C1 | > 100 µM (inactive) | > 100 µM (inactive) | > 100 µM (inactive) | > 100 µM (inactive) | > 100 µM | > 100 µM (inactive) | > 100 µM (inactive) | > 100 µM (inactive) | > 100 µM (inactive) | > 100 µM (inactive) | > 100 µM (inactive) | > 100 µM (inactive) | > 100 µM (inactive) | > 100 µM (inactive) | > 100 µM (inactive) | > 100 µM (inactive) | > 100 µM (inactive) | > 100 µM (inactive) | – | –
NC(=S)N/N=C(/CC(=O)c1ccccc1)C(=O)Nc1ccc(Cl)c(Cl)c1 | 59 µM (inactive) | > 100 µM (inactive) | 60.4 µM (inactive) | 21.6 µM (inactive) | 43.3 µM | > 100 µM (inactive) | 61.9 µM (inactive) | > 100 µM (inactive) | 83.4 µM (inactive) | > 100 µM (inactive) | 91.2 µM (inactive) | > 100 µM (inactive) | 78.5 µM (inactive) | > 100 µM (inactive) | 65.3 µM (inactive) | > 100 µM (inactive) | 33 µM (inactive) | > 100 µM (inactive) | – | –
O=C(CO)CC(=O)C(=O)Nc1nc([N+](=O)[O-])cs1 | > 100 µM (inactive) | > 100 µM (inactive) | > 100 µM (inactive) | > 100 µM (inactive) | > 100 µM | > 100 µM (inactive) | > 100 µM (inactive) | > 100 µM (inactive) | > 100 µM (inactive) | > 100 µM (inactive) | > 100 µM (inactive) | > 100 µM (inactive) | > 100 µM (inactive) | > 100 µM (inactive) | > 100 µM (inactive) | > 100 µM (inactive) | > 100 µM (inactive) | > 100 µM (inactive) | – | –
Cc1nc2c(n1Cc1ccc(F)cc1)C(=O)c1ccccc1C2=O | 6.56 µM (inactive) | 4.6 µM (inactive) | 27.7 µM (inactive) | 10.8 µM (inactive) | 4.29 µM | > 100 µM (inactive) | 44.2 µM (inactive) | 6.89 µM (inactive) | 13.5 µM (inactive) | 32.5 µM (inactive) | > 100 µM (inactive) | > 100 µM (inactive) | 41.3 µM (inactive) | 9.44 µM (inactive) | 42.2 µM (inactive) | 13.2 µM (inactive) | 71 µM (inactive) | 54 µM (inactive) | – | –
CC1=C(c2cc(C(=O)Nc3cccc(C(F)(F)F)c3)ncn2)Sc2ccccc2N1 | > 100 µM (inactive) | > 100 µM (inactive) | > 100 µM (inactive) | > 100 µM (inactive) | > 100 µM | > 100 µM (inactive) | > 100 µM (inactive) | > 100 µM (inactive) | > 100 µM (inactive) | > 100 µM (inactive) | > 100 µM (inactive) | > 100 µM (inactive) | > 100 µM (inactive) | > 100 µM (inactive) | > 100 µM (inactive) | > 100 µM (inactive) | > 100 µM (inactive) | > 100 µM (inactive) | – | –
COc1cc(/C=C2/C(=O)N(C(=O)c3ccccc3O)N=C2C)cc(OC)c1OC | 1.2 µM (inactive) | 8.59 µM (inactive) | 1.29 µM (inactive) | 3.83 µM (inactive) | 3.17 µM | 9.79 µM (inactive) | 1.16 µM (inactive) | 0.358 µM (active) | 0.555 µM (active) | 6.21 µM (inactive) | 1.44 µM (inactive) | 7.38 µM (inactive) | 6.22 µM (inactive) | 34.4 µM (inactive) | 0.455 µM (active) | 0.653 µM (active) | 5.5 µM (inactive) | 3.1 µM (inactive) | 1.12 µM (active) | 4.29 µM (inactive)
